Laboratory results from article PMC11241395 (International Journal of Molecular Sciences, 2024).
“Also recorded” adds a separate entry of the source. Read-outs that look alike come from different tables or passages of the source.

What was measured:
[1] = tested on: HDF (regular fibroblast cell line); assay: MTT cytotoxicity assay, normal HDF cells; format: cell-based; conditions: Homo sapiens, read-out: IC50 (SD), HDF
Procedure: (§1) This activity was evaluated in vitro using the standard MTT method (enzymatic reduction of 3-[4,5-dimethylthiazole-2-yl]-2,5-diphenyltetrazolium bromide, MTT, to MTT-formazan) based on a viability assay.
(§2) Cytotoxic activity: Human cancer cells SKBR-3 (human breast cancer cell line) and SKOV-3 (ovarian cancer cell line) were cultured in McCoy’s Modified Medium. Human cancer cells PC-3 (human prostate cancer cell line) were cultured in an F-12K medium. The Human Dermal Fibroblast (HDF) cell line was cultured in Fibroblast Basal Medium. The U-87 cell line was cultured in EMEM medium. Each medium was supplemented with 10% foetal bovine serum, 1% L- glutamine, and 1% penicillin/streptomycin solution. The cell lines were kept in an incubator at 37 °C. All the cell lines and mediums were obtained from the American Type Culture Collection (ATCC) supplied by LGC-Standards (Lomianki, Poland).
(§3) The MTT assay was conducted as described earlier.

[2] = tested on: SKBR-3, SKOV-3, PC-3, and U-87 cancer cell lines; assay: MTT cytotoxicity assay, four cancer cell lines taken together; format: cell-based, human; conditions: span over the four cancer cell lines
Procedure: as §1, §2, §3

[3] = tested on: U-87 (human glioblastoma); assay: MTT cytotoxicity assay, U-87; format: cell-based; conditions: read-out: IC50 (SD), U-87
Procedure: as §1, §2, §3

[4] = tested on: SKOV-3 (human ovarian cystadenocarcinoma); assay: MTT cytotoxicity assay, SKOV-3; format: cell-based; conditions: SK-OV-3, read-out: IC50 (SD), SKOV-3
Procedure: as §1, §2, §3

[5] = tested on: SKBR-3 (human breast adenocarcinoma); assay: MTT cytotoxicity assay, SKBR-3; format: cell-based; conditions: SK-BR-3, read-out: IC50 (SD), SKBR-3
Procedure: as §1, §2, §3

[6] = tested on: PC-3 (human prostate carcinoma); assay: MTT cytotoxicity assay, PC-3; format: cell-based; conditions: read-out: IC50 (SD), PC-3
Procedure: as §1, §2, §3

[7] = DPPH radical-scavenging assay; conditions: sample 1.0 mg/mL in DMSO, 30 min, 517 nm; compared with OA (1)
Procedure: The results are presented as % inhibition of the DPPH radical and Trolox equivalent, calculated from the standard curve (Figure 4). Activity assays were performed in eight repetitions.
The 2,2-diphenyl-1-picrylhydrazyl (DPPH) assay was performed according to Garbiec et al. with modifications. Briefly, 25 μL of the sample at a concentration of 1.0 mg/mL dissolved in dimethyl sulfoxide (DMSO) was mixed with 175 μL of DPPH solution (3.9 mg in 50 mL of methanol). The reaction mixture was shaken and incubated in the dark at room temperature for 30 min. The control sample contained 25 μL of DMSO and 175 μL of DPPH solution. Absorbance was measured at 517 nm. The inhibition of the DPPH radical by the sample was calculated according to the following formula: DPPH-scavenging activity (%) = ((AC − AS)/AC) × 100% where AC is the absorbance of the control and AS is the absorbance of the sample.
The results were presented as % inhibition of the DPPH radical and Trolox equivalent, calculated from the standard curve. Activity assays were performed in 8 repetitions.

Structure (SMILES) | melting point | IC50 ([1]; HDF) | IC50 ([2]; Homo sapiens) | IC50 [3] | IC50 [4] | IC50 [5] | IC50 [1] | IC50 [6] | DPPH radical inhibition expressed as Trolox equivalent [7] | IC50 [2]
CC1(C)CC[C@]2(C(=O)OCOC(=O)[C@]34CCC(C)(C)CC3C3=CCC5[C@@]6(C)CC[C@H](O)C(C)(C)C6CC[C@@]5(C)[C@]3(C)CC4)CC[C@]3(C)C(=CCC4[C@@]5(C)CC[C@H](O)C(C)(C)C5CC[C@]43C)C2C1 (stereo partly shown) (hydrate or solvate) [Compound 2a] | 183 to 185 °C | – | – | – | – | – | – | – | – | –
CC1(C)CC[C@]2(C(=O)O)CC[C@]3(C)C(=CC[C@@H]4[C@@]5(C)CC[C@H](O)C(C)(C)[C@@H]5CC[C@]43C)[C@@H]2C1 [1 (OA), Oleanolic acid, reference compound] | – | ~25 µM | 18 to 19 µM | 18.2 µM | 18.8 µM | 19.6 µM | – | – | – | –
CC1(C)CC[C@]2(C(=O)OCOC(=O)[C@]34CCC(C)(C)CC3C3=CCC5[C@@]6(C)CC[C@H](O)C(C)(C)C6CC[C@@]5(C)[C@]3(C)CC4)CC[C@]3(C)C(=CCC4[C@@]5(C)CC[C@H](O)C(C)(C)C5CC[C@]43C)C2C1 (stereo partly shown) [Compound 2a] | – | – | 3.06 to 4.58 µM | 3.32 µM | 3.89 µM | 3.96 µM | 6.56 µM | 3.38 µM | by far the highest activity; also recorded: significantly higher | –
CC1(C)CC[C@]2(C(=O)OCCOC(=O)[C@]34CCC(C)(C)CC3C3=CCC5[C@@]6(C)CC[C@H](O)C(C)(C)C6CC[C@@]5(C)[C@]3(C)CC4)CC[C@]3(C)C(=CCC4[C@@]5(C)CC[C@H](O)C(C)(C)C5CC[C@]43C)C2C1 (stereo partly shown) [Compound 2b] | – | – | 4.79 to 8.22 µM | 6.59 µM | 6.49 µM | 6.67 µM | 11.2 µM | 6.43 µM | highest level of antioxidant activity; also recorded: significantly higher | –
CC1(C)CC[C@]2(C(=O)OCCCOC(=O)[C@]34CCC(C)(C)CC3C3=CCC5[C@@]6(C)CC[C@H](O)C(C)(C)C6CC[C@@]5(C)[C@]3(C)CC4)CC[C@]3(C)C(=CCC4[C@@]5(C)CC[C@H](O)C(C)(C)C5CC[C@]43C)C2C1 (stereo partly shown) [Compound 2c] | – | – | 4.79 to 8.22 µM | 7.46 µM | 8.22 µM | 7.64 µM | 18.9 µM | 7.4 µM | – | –
CC1(C)CC[C@]2(C(=O)OCCCCOC(=O)[C@]34CCC(C)(C)CC3C3=CCC5[C@@]6(C)CC[C@H](O)C(C)(C)C6CC[C@@]5(C)[C@]3(C)CC4)CC[C@]3(C)C(=CCC4[C@@]5(C)CC[C@H](O)C(C)(C)C5CC[C@]43C)C2C1 (stereo partly shown) [Compound 2d] | – | – | – | 1.2 µM | 1.56 µM | 1.12 µM | 2.95 µM | 1.64 µM | – | –
CC1(C)CC[C@]2(C(=O)OC/C=C\COC(=O)[C@]34CCC(C)(C)CC3C3=CCC5[C@@]6(C)CC[C@H](O)C(C)(C)C6CC[C@@]5(C)[C@]3(C)CC4)CC[C@]3(C)C(=CCC4[C@@]5(C)CC[C@H](O)C(C)(C)C5CC[C@]43C)C2C1 (stereo partly shown) [Compound 2e] | – | – | – | 2.74 µM | 2.09 µM | 2.61 µM | 2.68 µM | 2.27 µM | – | –
CC1(C)CC[C@]2(C(=O)OC/C=C/COC(=O)[C@]34CCC(C)(C)CC3C3=CCC5[C@@]6(C)CC[C@H](O)C(C)(C)C6CC[C@@]5(C)[C@]3(C)CC4)CC[C@]3(C)C(=CCC4[C@@]5(C)CC[C@H](O)C(C)(C)C5CC[C@]43C)C2C1 (stereo partly shown) [Compound 2f] | – | – | 4.79 to 8.22 µM | 4.91 µM | 4.79 µM | 5.09 µM | 2.78 µM | 5.11 µM | highest level of antioxidant activity; also recorded: significantly higher | –
CC1(C)CC[C@]2(C(=O)OCCCCCOC(=O)[C@]34CCC(C)(C)CC3C3=CCC5[C@@]6(C)CC[C@H](O)C(C)(C)C6CC[C@@]5(C)[C@]3(C)CC4)CC[C@]3(C)C(=CCC4[C@@]5(C)CC[C@H](O)C(C)(C)C5CC[C@]43C)C2C1 (stereo partly shown) [Compound 2g] | – | – | 4.79 to 8.22 µM | 5.32 µM | 5.16 µM | 5.21 µM | 3.37 µM | 5.8 µM | – | –
CC1(C)CC[C@]2(C(=O)OCCCCCCOC(=O)[C@]34CCC(C)(C)CC3C3=CCC5[C@@]6(C)CC[C@H](O)C(C)(C)C6CC[C@@]5(C)[C@]3(C)CC4)CC[C@]3(C)C(=CCC4[C@@]5(C)CC[C@H](O)C(C)(C)C5CC[C@]43C)C2C1 (stereo partly shown) [Compound 2h] | – | – | – | 5.87 µM | 5.39 µM | 6.02 µM | 17.3 µM | 5.34 µM | – | –
CC1(C)CC[C@]2(C(=O)OCCCCCCCOC(=O)[C@]34CCC(C)(C)CC3C3=CCC5[C@@]6(C)CC[C@H](O)C(C)(C)C6CC[C@@]5(C)[C@]3(C)CC4)CC[C@]3(C)C(=CCC4[C@@]5(C)CC[C@H](O)C(C)(C)C5CC[C@]43C)C2C1 (stereo partly shown) [Compound 2i] | – | – | 3.06 to 4.58 µM | 3.06 µM | 3.68 µM | 3.46 µM | 5.39 µM | 3.16 µM | – | –
CC1(C)CC[C@]2(C(=O)OCCCCCCCCOC(=O)[C@]34CCC(C)(C)CC3C3=CCC5[C@@]6(C)CC[C@H](O)C(C)(C)C6CC[C@@]5(C)[C@]3(C)CC4)CC[C@]3(C)C(=CCC4[C@@]5(C)CC[C@H](O)C(C)(C)C5CC[C@]43C)C2C1 (stereo partly shown) [Compound 2j] | – | – | 9.81 to 10.7 µM | 10.7 µM | 10.3 µM | 9.99 µM | 16 µM | 9.81 µM | – | –
CC1(C)CC[C@]2(C(=O)OCCCCCCCCCOC(=O)[C@]34CCC(C)(C)CC3C3=CCC5[C@@]6(C)CC[C@H](O)C(C)(C)C6CC[C@@]5(C)[C@]3(C)CC4)CC[C@]3(C)C(=CCC4[C@@]5(C)CC[C@H](O)C(C)(C)C5CC[C@]43C)C2C1 (stereo partly shown) [Compound 2k] | – | – | 4.79 to 8.22 µM | 7.34 µM | 6.89 µM | 6.93 µM | 16.8 µM | 6.93 µM | – | –
CC1(C)CC[C@]2(C(=O)OCCCCCCCCCCOC(=O)[C@]34CCC(C)(C)CC3C3=CCC5[C@@]6(C)CC[C@H](O)C(C)(C)C6CC[C@@]5(C)[C@]3(C)CC4)CC[C@]3(C)C(=CCC4[C@@]5(C)CC[C@H](O)C(C)(C)C5CC[C@]43C)C2C1 (stereo partly shown) [Compound 2l] | – | – | 18.4 µM | 18.7 µM | 18.4 µM | 18.7 µM | 36.3 µM | 18.4 µM | – | 18.7 µM
CC1(C)CC[C@]2(C(=O)OCCCCCCCCCCCOC(=O)[C@]34CCC(C)(C)CC3C3=CCC5[C@@]6(C)CC[C@H](O)C(C)(C)C6CC[C@@]5(C)[C@]3(C)CC4)CC[C@]3(C)C(=CCC4[C@@]5(C)CC[C@H](O)C(C)(C)C5CC[C@]43C)C2C1 (stereo partly shown) [Compound 2m] | – | – | 3.06 to 4.58 µM | 4.25 µM | 4.58 µM | 3.93 µM | 7.43 µM | 3.91 µM | – | –
CC1(C)CC[C@]2(C(=O)OCCCCCCCCCCCCOC(=O)[C@]34CCC(C)(C)CC3C3=CCC5[C@@]6(C)CC[C@H](O)C(C)(C)C6CC[C@@]5(C)[C@]3(C)CC4)CC[C@]3(C)C(=CCC4[C@@]5(C)CC[C@H](O)C(C)(C)C5CC[C@]43C)C2C1 (stereo partly shown) [Compound 2n] | – | – | 4.79 to 8.22 µM | 6.51 µM | 7.41 µM | 6.79 µM | 7.3 µM | 6.96 µM | – | –
